We go through three molecules from US11319336B2, “Ship inhibitors and uses thereof” (The Research Foundation For The State University Of New York, priority 2010, dated 2022).

For assay [1], the target named is T1, recombinant SHIP1 (Homo sapiens, UniProt Q92835).
T1 sequence (Q92835 1-1189): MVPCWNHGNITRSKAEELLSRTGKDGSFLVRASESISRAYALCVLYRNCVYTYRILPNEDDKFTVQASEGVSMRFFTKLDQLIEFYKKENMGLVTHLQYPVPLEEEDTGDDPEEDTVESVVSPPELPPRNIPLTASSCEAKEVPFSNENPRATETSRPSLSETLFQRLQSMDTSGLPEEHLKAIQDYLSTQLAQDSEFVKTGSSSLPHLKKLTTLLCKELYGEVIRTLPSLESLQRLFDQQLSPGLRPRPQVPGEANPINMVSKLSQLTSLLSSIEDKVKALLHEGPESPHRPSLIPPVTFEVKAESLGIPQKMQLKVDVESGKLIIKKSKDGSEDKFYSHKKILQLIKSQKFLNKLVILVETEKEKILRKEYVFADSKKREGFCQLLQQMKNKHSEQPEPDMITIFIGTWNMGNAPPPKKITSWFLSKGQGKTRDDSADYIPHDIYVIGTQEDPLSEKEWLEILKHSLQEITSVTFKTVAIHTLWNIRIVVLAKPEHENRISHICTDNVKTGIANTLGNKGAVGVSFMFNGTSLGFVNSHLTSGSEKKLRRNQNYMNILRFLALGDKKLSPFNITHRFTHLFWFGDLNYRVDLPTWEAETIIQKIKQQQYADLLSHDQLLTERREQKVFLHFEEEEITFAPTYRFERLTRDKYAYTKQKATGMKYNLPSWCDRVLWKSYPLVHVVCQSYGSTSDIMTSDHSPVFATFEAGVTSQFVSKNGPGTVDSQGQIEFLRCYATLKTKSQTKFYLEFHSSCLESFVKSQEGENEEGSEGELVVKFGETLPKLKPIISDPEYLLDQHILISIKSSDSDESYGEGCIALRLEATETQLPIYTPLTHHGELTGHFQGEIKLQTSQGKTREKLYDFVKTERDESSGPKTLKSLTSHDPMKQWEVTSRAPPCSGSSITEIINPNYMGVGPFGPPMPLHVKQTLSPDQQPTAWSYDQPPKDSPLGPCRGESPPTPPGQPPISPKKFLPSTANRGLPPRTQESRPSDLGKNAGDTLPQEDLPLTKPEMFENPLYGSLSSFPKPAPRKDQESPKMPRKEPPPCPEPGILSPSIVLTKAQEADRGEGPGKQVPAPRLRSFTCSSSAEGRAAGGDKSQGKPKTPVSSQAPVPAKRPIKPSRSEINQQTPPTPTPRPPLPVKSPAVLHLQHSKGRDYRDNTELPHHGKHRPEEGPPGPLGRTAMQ
Briefly: Malachite Green phosphatase assay for SHIP1 activity against PI(3,4,5)P3 substrate. The assay is classed as biochemical. How it is done: Absorbance is recorded at 620 nm, smaller numbers indicate a lack of green color and inhibition of the phosphatase.
(§1) [Noto bene: DRV-IV-26=3A5AS]

The subject of assay [2] is MIR cell numbers. The experiment in a line: MIR cell induction in treated mice. The assay is classed as in vivo. Conditions: FIG. 6C, D. The method, then: as §1
The solubility of 3AC was assessed by calculating the distribution coefficient (CLogD). This calculation estimates the CLogD for 3AC at 7.17 indicating the molecule is very lipophilic. Thus, we have begun to develop novel 3AC analogs with increased aqueous solubility. One of these compounds, 3A5AS, has a CLogD of 3.33. Lipinski's rules (a common measure of small molecule pharmacokinetics) recommend a ClogD of <5 for in vivo applications.

SMILES strings stand for the structures. Entries after “also recorded” stand apart in the source; their conditions may differ.

With `C[C@@]12CCC[C@H]1[C@@H]1CC[C@H]3C[C@H](N)CC[C@]3(C)[C@H]1CC2` [Example 3A5AS, 3α-amino-5α-androstane], in assay [1] (Malachite Green assay, PI(3,4,5)P3 substrate, FIG. 5B / FIG. 6A), the “Inhibition of recombinant SHIP1 activity in vitro, compared with 3AC” value is on record as “equal inhibitory activity; also recorded: equally potent”. Moreover, in assay [2], the “Concentration inducing a comparable MIR cell increase in vivo” value came to 15 µM and the “Potency at inducing MIR cell numbers in vivo, compared with 3AC” value is recorded as “more potent”.
As for `CC(C)CCC[C@@H](C)[C@H]1CC[C@H]2[C@@H]3CCC4C[C@H](N)CC[C@]4(C)[C@H]3CC[C@]12C` (some centres unmarked) [Example 3AC, reference compound], the “Concentration inducing a comparable MIR cell increase in vivo” value in assay [2] stood at 60 µM.
Consider `CCN` [ethylamine], for which the “SHIP1 inhibition by lack of green color” value in assay [1] (SHIP1 malachite phosphatase assay, FIG. 1, visual readout) is recorded as “poor inhibitor”.
